Structures are written as SMILES. Counter-ions that a name gives are not always drawn.

Sequence of human CXCR3-A receptor (P49682 whole entry): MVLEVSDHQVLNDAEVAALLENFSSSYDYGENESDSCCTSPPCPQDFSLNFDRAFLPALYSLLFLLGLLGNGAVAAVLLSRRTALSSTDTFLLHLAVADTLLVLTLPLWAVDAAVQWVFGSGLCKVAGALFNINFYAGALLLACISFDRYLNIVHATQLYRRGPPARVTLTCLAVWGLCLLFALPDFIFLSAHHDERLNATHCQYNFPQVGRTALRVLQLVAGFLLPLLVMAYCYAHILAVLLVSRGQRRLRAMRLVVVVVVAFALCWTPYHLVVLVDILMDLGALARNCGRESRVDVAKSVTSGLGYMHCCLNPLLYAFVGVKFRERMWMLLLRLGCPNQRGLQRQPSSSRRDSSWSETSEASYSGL

The experiment concerns the target human CXCR3-A receptor (Homo sapiens (Human), UniProt P49682). As to the kind of experiment: 125I-CXCL10 competition radioligand binding assay. The settings on record: displacement of 125I-CXCL10 from membranes of CHO cells expressing human recombinant CXCR3-A. The gist of the method: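 Membranes from a recombinant cell line expressing human CXCR3-A (10-20 μg protein) were incubated with 125I-CXCL10 and test compound for 60 min at 25° C, then filtered onto PEI-soaked GF/B filters and gamma-counted. IC50 and Hill slope came from four-parameter nonlinear fitting of competition curves.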
As to `COc1cc(CN(C[C@H]2CC[C@H](C(=O)O)CC2)C(C)c2ccc(Cl)c(F)c2)ccc1OCCN1C(=O)CCC1=O` (stereo partly drawn) [Example 82, trans-4-[([1-(4-Chloro-3-fluoro-phenyl)-ethyl]-{4-[2-(2,5-dioxo-pyrrolidin-1-yl)-ethoxy]-3-methoxy-benzyl}-amino)-methyl]-cyclohexanecarboxylic acid], the IC50 came to 46 nM.
The result for `COc1cc(CN(C[C@H]2CC[C@H](C(=O)O)CC2)C2CCc3cc(Cl)ccc32)ccc1CCCN1C(=O)CCC1=O` (stereo in doubt) [Example 46, trans-4-[(((S)-5-Chloro-indan-1-yl)-{4-[3-(2,5-dioxo-pyrrolidin-1-yl)-propyl]-3-methoxy-benzyl}-amino)-methyl]-cyclohexanecarboxylic acid] reads 1000 nM; that for `COc1cc(CN(C[C@H]2CC[C@H](C(=O)O)CC2)[C@H]2CCc3c2ccc(Cl)c3Cl)ccc1OCCN1C(=O)CCC1=O` [Example 14, trans-4-[(((S)-4,5-Dichloro-indan-1-yl)-{4-[2-(2,5-dioxo-pyrrolidin-1-yl)-ethoxy]-3-methoxy-benzyl}-amino)-methyl]-cyclohexanecarboxylic acid hydrochloride], 25 nM.
The result for `COc1cc(CN(C[C@@H]2C[C@H]2C(=O)O)C(C)c2ccc3c(c2)CCO3)ccc1OCCN1C(=O)CCC1=O` (stereo partly drawn) [Example 112, (1R,2R)-2-[([1-(2,3-Dihydro-benzofuran-5-yl)-ethyl]-{4-[2-(2,5-dioxo-pyrrolidin-1-yl)-ethoxy]-3-methoxy-benzyl}-amino)-methyl]-cyclopropanecarboxylic acid] reads 145 nM; that for `COc1cc(CN(C[C@H]2CC[C@H](C(=O)O)CC2)C2CCc3cc(Cl)ccc32)ccc1OCCN1C(=O)CCC1=O` (stereo partly drawn) [Example 10, trans-4-[((5-Chloro-indan-1-yl)-{4-[2-(2,5-dioxo-pyrrolidin-1-yl)-ethoxy]-3-methoxy-benzyl}-amino)-methyl]-cyclohexane-carboxylic acid], 64 nM.
The result for `COc1cc(CN(C[C@@H]2C[C@@H]2C(=O)O)C(C)c2ccc3c(c2)CCO3)ccc1OCCN1C(=O)CCC1=O` (stereo partly drawn) [Example 114, (1S,2R)-2-[([1-(2,3-Dihydro-benzofuran-5-yl)-ethyl]-{4-[2-(2,5-dioxo-pyrrolidin-1-yl)-ethoxy]-3-methoxy-benzyl}-amino)-methyl]-cyclopropanecarboxylic acid] reads 180 nM; that for `Cc1cc(CN(C(C)c2ccc3c(c2)CCO3)[C@H]2C[C@@H](C(=O)O)C2)ccc1OCCn1c(=O)ccn(C)c1=O` (stereo partly drawn) [Example 134, cis-3-([1-(2,3-Dihydro-benzofuran-5-yl)-ethyl]-{3-methyl-4-[2-(3-methyl-2,6-dioxo-3,6-dihydro-2H-pyrimidin-1-yl)-ethoxy]-benzyl}-amino)-cyclobutanecarboxylic acid], 240 nM; that for `COc1cc(CN(C[C@H]2CC[C@H](C(=O)O)CC2)[C@@H](C)c2ccc(Cl)cc2)ccc1OCCN1C(=O)CCC1=O` [Example 5, trans-4-[([(S)-1-(4-Chloro-phenyl)-ethyl]-{4-[2-(2,5-dioxo-pyrrolidin-1-yl)-ethoxy]-3-methoxy-benzyl}-amino)-methyl]-cyclohexanecarboxylic acid], 19 nM.
On to `CCc1cc(CN(C[C@H]2CC[C@H](C(=O)O)CC2)[C@H]2CCc3c2ccc(Cl)c3F)ccc1OCCN1C(=O)CCC1=O` [Example 149, trans-4-[(((S)-5-Chloro-4-fluoro-indan-1-yl)-{4-[2-(2,5-dioxo-pyrrolidin-1-yl)-ethoxy]-3-ethyl-benzyl}-amino)-methyl]-cyclohexanecarboxylic acid], for which the IC50 worked out at 165 nM.
The result for `Cc1cc(CN(C[C@H]2CC[C@H](C(=O)O)CC2)C(C)c2ccc3c(c2)CCO3)ccc1OCCN1C(=O)CCC1=O` (stereo partly drawn) [Example 17, trans-4-[([1-(2,3-Dihydro-benzofuran-5-yl)-ethyl]-{4-[2-(2,5-dioxo-pyrrolidin-1-yl)-ethoxy]-3-methyl-benzyl}-amino)-methyl]-cyclohexanecarboxylic acid] reads 44 nM; that for `COc1cc(CN([C@H]2C[C@@H](C(=O)O)C2)[C@H](C)c2ccc(Cl)c(Cl)c2)ccc1OCCN1C(=O)CCC1=O` [Example 152, cis-3-([(R)-1-(3,4-Dichloro-phenyl)-ethyl]-{4-[2-(2,5-dioxo-pyrrolidin-1-yl)-ethoxy]-3-methoxy-benzyl}-amino)-cyclobutanecarboxylic acid], 149 nM; that for `CC(c1ccc2c(c1)CCO2)N(Cc1ccc(CCCN2C(=O)CCC2=O)c(Cl)c1)C[C@H]1CC[C@H](C(=O)O)CC1` (stereo partly drawn) [Example 47, trans-4-({{3-Chloro-4-[3-(2,5-dioxo-pyrrolidin-1-yl)-propyl]-benzyl}-[1-(2,3-dihydro-benzofuran-5-yl)-ethyl]-amino}-methyl)-cyclohexanecarboxylic acid], 800 nM.
In the case of `COc1cc(CN(C[C@H]2CC[C@H](C(=O)O)CC2)C(C)c2ccc(C#N)cc2)ccc1OCCn1c(=O)ccn(C)c1=O` (stereo partly drawn) [Example 62, trans-4-[([1-(4-Cyano-phenyl)-ethyl]-{3-methoxy-4-[2-(3-methyl-2,6-dioxo-3,6-dihydro-2H-pyrimidin-1-yl)-ethoxy]-benzyl}-amino)-methyl]-cyclohexanecarboxylic acid], the IC50 is 200 nM.
The result for `C[C@@H](c1ccc(Cl)cc1)N(Cc1ccc(OCCN2C(=O)CCC2=O)c(Cl)c1)C[C@H]1CC[C@H](C(=O)O)CC1` [Example 32, trans-4-({{3-Chloro-4-[2-(2,5-dioxo-pyrrolidin-1-yl)-ethoxy]-benzyl}-[(S)-1-(4-chloro-phenyl)-ethyl]-amino}-methyl)-cyclohexanecarboxylic acid] reads 123 nM; that for `COc1cc(CN([C@H]2C[C@@H](C(=O)O)C2)[C@H](C)c2ccc(Cl)c(F)c2)ccc1OCCN1C(=O)CCC1=O` [Example 150, cis-3-([(R)-1-(4-Chloro-3-fluoro-phenyl)-ethyl]-{4-[2-(2,5-dioxo-pyrrolidin-1-yl)-ethoxy]-3-methoxy-benzyl}-amino)-cyclobutanecarboxylic acid], 98 nM; that for `CCc1cc(CN(C[C@H]2CC[C@H](C(=O)O)CC2)C(C)c2ccc(Cl)c(F)c2)ccc1OCCN1C(=O)CCC1=O` (stereo partly drawn) [Example 89, trans-4-[([1-(4-Chloro-3-fluoro-phenyl)-ethyl]-{4-[2-(2,5-dioxo-pyrrolidin-1-yl)-ethoxy]-3-ethyl-benzyl}-amino)-methyl]-cyclohexanecarboxylic acid], 52 nM.
The result for `COc1cc(CN(C2CC(C(=O)O)C2)C2CCc3cc(Cl)ccc32)ccc1OCCN1C(=O)CCC1=O` (stereo not shown) [Example 127, 3-((5-Chloro-indan-1-yl)-{4-[2-(2,5-dioxo-pyrrolidin-1-yl)-ethoxy]-3-methoxy-benzyl}-amino)-cyclobutanecarboxylic acid] reads 1090 nM; that for `CCc1cc(CN(C[C@H]2CC[C@H](C(=O)O)CC2)[C@H]2CCc3c2ccc(Cl)c3Cl)ccc1OCCN1C(=O)CCC1=O` [Example 86, trans-4-[(((S)-4,5-Dichloro-indan-1-yl)-{4-[2-(2,5-dioxo-pyrrolidin-1-yl)-ethoxy]-3-ethyl-benzyl}-amino)-methyl]-cyclohexanecarboxylic acid], 85 nM; that for `CCc1cc(CN(C[C@H]2CC[C@H](C(=O)O)CC2)[C@@H](C)c2ccc(Cl)cc2)ccc1OCCN1C(=O)CCC1=O` [Example 75, trans-4-[([(S)-1-(4-Chloro-phenyl)-ethyl]-{4-[2-(2,5-dioxo-pyrrolidin-1-yl)-ethoxy]-3-ethyl-benzyl}-amino)-methyl]-cyclohexanecarboxylic acid], 45 nM.
The result for `COc1cc(CN(C[C@H]2CC[C@H](C(=O)O)CC2)[C@H]2CCc3cc(Cl)ccc32)ccc1OCCN1C(=O)c2ccccc2C1=O` [Example 156, trans-4-[(((S)-5-Chloro-indan-1-yl)-{4-[2-(1,3-dioxo-1,3-dihydro-isoindol-2-yl)-ethoxy]-3-methoxy-benzyl}-amino)-methyl]-cyclohexanecarboxylic acid; hydrochloride] reads 79 nM; that for `CCc1cc(CN(C(C)c2ccc(Cl)c(F)c2)[C@H]2C[C@@H](C(=O)O)C2)ccc1OCCN1C(=O)CCC1=O` (stereo partly drawn) [Example 140, cis-3-([1-(4-Chloro-3-fluoro-phenyl)-ethyl]-{4-[2-(2,5-dioxo-pyrrolidin-1-yl)-ethoxy]-3-ethyl-benzyl}-amino)-cyclobutanecarboxylic acid], 260 nM.
As for `COc1cc(CN(C[C@H]2CC[C@H](C(=O)O)CC2)[C@H]2CCc3cc(Cl)ccc32)ccc1OCCN1C(=O)CCC1=O` [Example 12, trans-4-[(((S)-5-Chloro-indan-1-yl)-{4-[2-(2,5-dioxo-pyrrolidin-1-yl)-ethoxy]-3-methoxy-benzyl}-amino)-methyl]-cyclohexanecarboxylic acid], the IC50 amounted to 13 nM.
Turning to `COc1cc(CN(C[C@H]2CC[C@H](C(=O)O)CC2)C2CCc3c2ccc(F)c3Cl)ccc1OCCN1C(=O)CCC1=O` (stereo partly drawn) [Example 93, trans-4-[((4-Chloro-5-fluoro-indan-1-yl)-{4-[2-(2,5-dioxo-pyrrolidin-1-yl)-ethoxy]-3-methoxy-benzyl}-amino)-methyl]-cyclohexanecarboxylic acid], the IC50 is 84 nM.
The result for `COc1cc(CN(C[C@H]2CC[C@H](C(=O)O)CC2)[C@H]2CCc3cc(Cl)ccc32)ccc1OCCN1C(=O)C2CC2C1=O` (stereo partly drawn) [Example 146, -4-[(((S)-5-Chloro-indan-1-yl)-{4-[2-(2,4-dioxo-3-aza-bicyclo[3.1.0]hex-3-yl)-ethoxy]-3-methoxy-benzyl}-amino)-methyl]-cyclohexanecarboxylic acid] reads 254 nM; that for `COc1cc(CN(C[C@H]2CC[C@H](C(=O)O)CC2)[C@@H](C)c2ccc(Cl)c(C)c2)ccc1OCCN1C(=O)CCC1=O` [Example 26, trans-4-[([(S)-1-(4-Chloro-3-methyl-phenyl)-ethyl]-{4-[2-(2,5-dioxo-pyrrolidin-1-yl)-ethoxy]-3-methoxy-benzyl}-amino)-methyl]-cyclohexanecarboxylic acid], 64 nM.

As usually defined, the IC50 is the point on the concentration scale where inhibition reaches its midpoint.

These data come from patent US9073853B2, “Cycloalkane carboxylic acid derivatives as CXCR3 receptor antagonists” (Sanofi, priority 2011, dated 2015).
